Data: patent US9758561B2 (priority 2014, dated 2017)
Where two headings read alike, the source gives them in different places.

Columns and labels:
[1] = biological target: T1, human glucagon receptor (Homo sapiens, UniProt P47871); test: cAMP response of HEK-293 cells stably expressing human glucagon receptor (HTRF); format: cell-based; details: read-out: EC50 hGlucagon-R
T1 construct: expressed in transfected cells; host or cells: HEK-293
Procedure: (§1) For preparation, cells were split into T175 culture flasks and grown overnight to near confluency in medium (DMEM/10% FBS). Medium was then removed and cells washed with PBS lacking calcium and magnesium, followed by proteinase treatment with accutase (Sigma-Aldrich cat. no. A6964). Detached cells were washed and resuspended in assay buffer (1×HBSS; 20 mM HEPES, 0.1% BSA, 2 mM IBMX) and cellular density determined. They were then diluted to 400000 cells/ml and 25 μl-aliquots dispensed into the wells of 96-well plates. For measurement, 25 μl of test compound in assay buffer was added to the wells, followed by incubation for 30 minutes at room temperature. […] Potencies of peptidic compounds at the GLP-1, glucagon and GIP receptors were determined by exposing cells expressing human glucagon receptor (hGlucagon R), human GIP receptor (hGIP-R) or human GLP-1 receptor (hGLP-1R) to the listed compounds at increasing concentrations and measuring the formed cAMP as described in Methods.

[2] = biological target: T2, human GLP-1 receptor (Homo sapiens, UniProt P43220); test: cAMP response of HEK-293 cells stably expressing human GLP-1 receptor (HTRF); format: cell-based; details: read-out: EC50 hGLP-1R
T2 construct: expressed in transfected cells; host or cells: HEK-293
T2 sequence (P43220 24-463): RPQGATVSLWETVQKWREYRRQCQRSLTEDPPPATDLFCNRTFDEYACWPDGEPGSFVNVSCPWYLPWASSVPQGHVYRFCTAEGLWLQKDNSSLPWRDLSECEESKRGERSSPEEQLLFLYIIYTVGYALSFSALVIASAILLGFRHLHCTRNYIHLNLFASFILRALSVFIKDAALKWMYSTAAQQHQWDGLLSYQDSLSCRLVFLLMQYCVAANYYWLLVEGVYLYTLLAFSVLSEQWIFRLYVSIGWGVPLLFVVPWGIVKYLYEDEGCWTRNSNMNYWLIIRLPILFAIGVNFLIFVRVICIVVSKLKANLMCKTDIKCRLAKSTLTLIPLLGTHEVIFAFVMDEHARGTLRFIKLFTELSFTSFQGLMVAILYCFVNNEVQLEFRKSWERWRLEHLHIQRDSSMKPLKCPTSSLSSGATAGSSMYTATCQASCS
Method in brief: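 HEK-293 cells stably expressing the receptor were taken up in HBSS/20 mM HEPES/0.1% BSA with 2 mM IBMX at 400000 cells/ml. They were exposed to increasing concentrations of peptide for 30 minutes at room temperature, and formed cAMP was measured by HTRF.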

[3] = biological target: T3, human GIP receptor (Homo sapiens, UniProt P48546); test: cAMP response of HEK-293 cells stably expressing human GIP receptor (HTRF); format: cell-based
T3 construct: expressed in transfected cells; host or cells: HEK-293
T3 sequence (P48546 22-466): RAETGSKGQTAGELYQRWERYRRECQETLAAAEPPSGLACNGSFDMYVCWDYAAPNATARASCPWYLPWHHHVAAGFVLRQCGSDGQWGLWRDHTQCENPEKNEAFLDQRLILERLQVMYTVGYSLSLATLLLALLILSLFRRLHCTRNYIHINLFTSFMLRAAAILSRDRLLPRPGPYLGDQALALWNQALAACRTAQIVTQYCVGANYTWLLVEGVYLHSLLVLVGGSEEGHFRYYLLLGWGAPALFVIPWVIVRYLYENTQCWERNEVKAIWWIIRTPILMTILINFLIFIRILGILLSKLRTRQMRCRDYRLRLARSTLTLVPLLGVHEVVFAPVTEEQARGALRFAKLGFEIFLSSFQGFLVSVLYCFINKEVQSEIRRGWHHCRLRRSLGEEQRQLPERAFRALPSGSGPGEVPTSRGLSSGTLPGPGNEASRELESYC
Procedure: as §1

[4] = Solubility testing in buffer (HPLC-UV); format: physicochemical
Procedure: Prior to the testing of solubility and stability of a peptide batch, its purity (HPLC-UV) was determined. […] Therefore, solutions from solid samples were prepared in different buffer systems with a concentration of 10 mg/mL compound based on the previously determined % purity. HPLC-UV was performed after 2 h of gentle agitation from the supernatant, which was obtained by 20 min of centrifugation at 4500 rpm. […] This analysis also served as starting point (t0) for the stability testing.

[5] = Stability testing in solution, 7 days at 40° C. (HPLC-UV); format: physicochemical; details: for Stability pH 4.5: pH 4.5, 7 days at 40° C. in solution; for Stability pH 7.4: pH 7.4, 7 days at 40° C. in solution
Procedure: After that time course, the sample was centrifuged for 20 min at 4500 rpm and 0.2 μL of the supernatant were analysed with HPLC-UV.
For determination of the amount of the remaining peptide, the peak areas of the target compound at t0 and t7 were compared, resulting in “% remaining peptide”, following the equation % remaining peptide=[(peak area peptide t7)×100]/peak area peptide t0.
The stability is expressed as “% remaining peptide”.

[6] = system: female diet-induced obese (DIO) C57BL/6 mice; test: Chronic effect on body weight and body fat in female DIO C57BL/6 mice; format: in vivo; details: 50 μg/kg bid s.c., 4 weeks
Procedure: C57BL/6 Harlan mice are housed in groups in a specific pathogen-free barrier facility on a 12 h light/dark cycle with free access to water and standard or high-fat diet. After prefeeding on high-fat diet, mice are stratified to treatment groups (n=8), so that each group has similar mean body weight. An age-matched group with ad-libitum access to standard chow is included as standard control group. Before the experiment, mice are subcutaneously (s.c.) injected with vehicle solution and weighed for 3 days to acclimate them to the procedures.
Body weight is recorded daily. Two days before start of treatment and on day 26, total fat mass is measured by nuclear magnetic resonance (NMR).
Statistical analyses are performed with Everstat 6.0 by repeated measures two-way ANOVA and Dunnetts post-hoc analyses (glucose profile) and 1-way-ANOVA, followed by Dunnetts post-hoc test (body weight, body fat). Differences versus vehicle-treated DIO control mice are considered statistically significant at the p<0.05 level.
Female obese C57BL/6 mice were treated for 4 weeks twice daily subcutaneously with 50 μg/kg SEQ ID NO: 6, 50 μg/kg SEQ ID NO: 7 or vehicle. Body weight was recorded daily, and body fat content was determined before the start and after 4 weeks of treatment. […] These changes resulted from a decrease in body fat, as shown by the absolute changes in body fat content (Table 10, FIG. 3).
Female obese C57BL/6 mice were treated for 4 weeks twice daily subcutaneously with 50 μg/kg SEQ ID NO: 9 or vehicle. Body weight was recorded daily, and body fat content was determined before the start and after 4 weeks of treatment.

[7] = Table 7, comparison of residue in position 14
[8] = pH 4.5, target concentration 10 mg/ml, read-out: solubility pH 4.5
[9] = pH 7.4, target concentration 10 mg/ml, read-out: solubility pH 7.4

T1 sequence (P47871 26-477): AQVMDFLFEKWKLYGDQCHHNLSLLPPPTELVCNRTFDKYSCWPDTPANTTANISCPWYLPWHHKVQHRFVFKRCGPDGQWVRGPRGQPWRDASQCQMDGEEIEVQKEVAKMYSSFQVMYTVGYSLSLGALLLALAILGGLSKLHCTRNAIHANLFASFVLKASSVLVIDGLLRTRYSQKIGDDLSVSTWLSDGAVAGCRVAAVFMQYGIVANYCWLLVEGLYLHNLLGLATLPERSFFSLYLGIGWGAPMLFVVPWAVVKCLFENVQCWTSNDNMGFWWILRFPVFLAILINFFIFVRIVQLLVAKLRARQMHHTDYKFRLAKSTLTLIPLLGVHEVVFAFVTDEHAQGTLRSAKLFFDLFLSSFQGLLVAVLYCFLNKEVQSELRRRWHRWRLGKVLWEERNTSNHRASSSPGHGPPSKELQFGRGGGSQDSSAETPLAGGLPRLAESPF

SMILES	EC50 ([1]; Table 6) [nM]	EC50 ([2]; Table 6) [nM]	EC50 ([3]; Table 6, read-out: EC50 hGIP-R) [nM]	EC50 [1, 7] [nM]	EC50 [2, 7] [nM]	EC50 ([3]; Table 7, comparison of residue in position 14, read-out: EC50 hGIP-1) [nM]	solubility at 2 h [4, 8] [µg/mL]	solubility at 2 h [4, 9] [µg/mL]	Stability pH 4.5 [5] [% remaining peptide]	Stability pH 7.4 [5] [% remaining peptide]	daily body weight compared to vehicle DIO control mice [6]	Body fat change ([6]; Table 10 (Example 7), NMR, mean ± SEM) [g]	Overall weight change ([6]; Table 10 (Example 7), mean ± SEM) [g]
CCCCCCCCCCCCCCCC(=O)N[C@@H](CCC(=O)N[C@@H](CCC(=O)NCCCC[C@H](NC(=O)[C@H](CCC(N)=O)NC(=O)[C@H](CCCCN)NC(=O)[C@H](CO)NC(=O)[C@H](CC(C)C)NC(=O)[C@H](CC(=O)O)NC(=O)[C@H](CO)NC(=O)[C@@H](NC(=O)[C@H](Cc1ccccc1)NC(=O)[C@@H](NC(=O)CNC(=O)[C@H](CCC(N)=O)NC(=O)[C@@H](CO)NC(=O)[C@@H](N)Cc1c[nH]cn1)[C@@H](C)O)[C@@H](C)O)C(=O)N[C@@H](CCC(=O)O)C(=O)N[C@@H](CCC(=O)O)C(=O)N[C@@H](CCC(=O)O)C(=O)N[C@@H](C)C(=O)N[C@@H](C)C(=O)N[C@@H](CCCNC(=N)N)C(=O)N[C@@H](CC(C)C)C(=O)N[C@@H](Cc1ccccc1)C(=O)N[C@H](C(=O)N[C@@H](CCC(=O)O)C(=O)N[C@@H](Cc1c[nH]c2ccccc12)C(=O)N[C@@H](CC(C)C)C(=O)NC(C)(C)C(=O)N[C@@H](C)C(=O)NCC(=O)NCC(=O)N1CCC[C@H]1C(=O)N[C@@H](CO)C(=O)N[C@@H](CO)C(=O)NCC(=O)N[C@@H](C)C(=O)N1CCC[C@H]1C(=O)N1CCC[C@H]1C(=O)N1CCC[C@H]1C(=O)N[C@@H](CO)C(N)=O)[C@@H](C)CC)C(=O)O)C(=O)O [SEQ ID NO: 16, H-dSer-Q-G-T-F-T-S-D-L-S-K-Q-K(γE-γE-x53)-E-E-E-A-A-R-L-F-I-E-W-L-Aib-A-G-G-P-S-S-G-A-P-P-P-S-NH2]	0.0354	0.0018	7.78										
CCCCCCCCCCCCCCCC(=O)N[C@@H](CCC(=O)N[C@@H](CCC(=O)NCCCC[C@H](NC(=O)[C@H](CCC(N)=O)NC(=O)[C@H](CCCCN)NC(=O)[C@H](CO)NC(=O)[C@H](CC(C)C)NC(=O)[C@H](CC(=O)O)NC(=O)[C@H](CO)NC(=O)[C@@H](NC(=O)[C@H](Cc1ccccc1)NC(=O)[C@@H](NC(=O)CNC(=O)[C@H](CCC(N)=O)NC(=O)[C@@H](CO)NC(=O)[C@@H](N)Cc1c[nH]cn1)[C@@H](C)O)[C@@H](C)O)C(=O)N[C@@H](CC(=O)O)C(=O)N[C@@H](CCC(=O)O)C(=O)N[C@@H](CCC(=O)O)C(=O)N[C@@H](C)C(=O)N[C@@H](C)C(=O)N[C@@H](CCCNC(=N)N)C(=O)N[C@@H](CC(C)C)C(=O)N[C@@H](Cc1ccccc1)C(=O)N[C@H](C(=O)N[C@@H](CCC(=O)O)C(=O)N[C@@H](Cc1c[nH]c2ccccc12)C(=O)N[C@@H](CC(C)C)C(=O)N[C@@H](CCCCN)C(=O)N[C@@H](C)C(=O)NCC(=O)NCC(=O)N1CCC[C@H]1C(=O)N[C@@H](CO)C(=O)N[C@@H](CO)C(=O)NCC(=O)N[C@@H](C)C(=O)N1CCC[C@H]1C(=O)N1CCC[C@H]1C(=O)N1CCC[C@H]1C(=O)N[C@@H](CO)C(N)=O)[C@@H](C)CC)C(=O)O)C(=O)O [SEQ ID NO: 32, H-dSer-Q-G-T-F-T-S-D-L-S-K-Q-K(γE-γE-x53)-DEEAARLFIEWLKAGGPSSGAPPPS-NH2, reference compound]				0.0055	0.0019	0.565							
CCCCCCCCCCCCCCCC(=O)N[C@@H](CCC(=O)NCCCC[C@H](NC(=O)[C@H](CCC(N)=O)NC(=O)[C@H](CCCCN)NC(=O)[C@H](CO)NC(=O)[C@H](CC(C)C)NC(=O)[C@H](CC(=O)O)NC(=O)[C@H](CO)NC(=O)[C@@H](NC(=O)[C@H](Cc1ccccc1)NC(=O)[C@@H](NC(=O)CNC(=O)[C@H](CCC(N)=O)NC(=O)[C@@H](CO)NC(=O)[C@@H](N)Cc1c[nH]cn1)[C@@H](C)O)[C@@H](C)O)C(=O)N[C@@H](CC(=O)O)C(=O)N[C@@H](CCC(=O)O)C(=O)N[C@@H](CCC(=O)O)C(=O)N[C@@H](C)C(=O)N[C@@H](C)C(=O)N[C@@H](CCCNC(=N)N)C(=O)N[C@@H](CC(C)C)C(=O)N[C@@H](Cc1ccccc1)C(=O)N[C@H](C(=O)N[C@@H](CCC(=O)O)C(=O)N[C@@H](Cc1c[nH]c2ccccc12)C(=O)N[C@@H](CC(C)C)C(=O)NC(C)(C)C(=O)N[C@@H](C)C(=O)NCC(=O)NCC(=O)N1CCC[C@H]1C(=O)N[C@@H](CO)C(=O)N[C@@H](CO)C(=O)NCC(=O)N[C@@H](C)C(=O)N1CCC[C@H]1C(=O)N1CCC[C@H]1C(=O)N1CCC[C@H]1C(=O)N[C@@H](CO)C(N)=O)[C@@H](C)CC)C(=O)O [SEQ ID NO: 14, H-dSer-Q-G-T-F-T-S-D-L-S-K-Q-K(γE-x53)-D-E-E-A-A-R-L-F-I-E-W-L-Aib-A-G-G-P-S-S-G-A-P-P-P-S-NH2]	0.0247	0.0021	5.36				> 8000	> 8000	94.7	96.3			
CCCCCCCCCCCCCCCC(=O)N[C@@H](CCC(=O)N[C@@H](CCC(=O)NCCCC[C@H](NC(=O)[C@H](CCC(N)=O)NC(=O)[C@H](CCCCN)NC(=O)[C@H](CO)NC(=O)[C@H](CC(C)C)NC(=O)[C@H](CC(=O)O)NC(=O)[C@H](CO)NC(=O)[C@@H](NC(=O)[C@H](Cc1ccccc1)NC(=O)[C@@H](NC(=O)CNC(=O)[C@H](Cc1c[nH]cn1)NC(=O)[C@@H](CO)NC(=O)[C@@H](N)Cc1c[nH]cn1)[C@@H](C)O)[C@@H](C)O)C(=O)N[C@@H](CCC(=O)O)C(=O)N[C@@H](CCC(=O)O)C(=O)N[C@@H](CCC(=O)O)C(=O)N[C@@H](C)C(=O)N[C@@H](C)C(=O)N[C@@H](CCCNC(=N)N)C(=O)N[C@@H](CC(C)C)C(=O)N[C@@H](Cc1ccccc1)C(=O)N[C@H](C(=O)N[C@@H](CCC(=O)O)C(=O)N[C@@H](Cc1c[nH]c2ccccc12)C(=O)N[C@@H](CC(C)C)C(=O)NC(C)(C)C(=O)N[C@@H](C)C(=O)NCC(=O)NCC(=O)N1CCC[C@H]1C(=O)N[C@@H](CO)C(=O)N[C@@H](CO)C(=O)NCC(=O)N[C@@H](C)C(=O)N1CCC[C@H]1C(=O)N1CCC[C@H]1C(=O)N1CCC[C@H]1C(=O)N[C@@H](CO)C(N)=O)[C@@H](C)CC)C(=O)O)C(=O)O [SEQ ID NO: 6, H-dSer-H-G-T-F-T-S-D-L-S-K-Q-K(γE-γE-x53)-E-E-E-A-A-R-L-F-I-E-W-L-Aib-A-G-G-P-S-S-G-A-P-P-P-S-NH2]	0.0177	0.0026	1.54				> 8000	> 8000	100.0	92.0	decrease in daily body weight	-4.64 ± 0.4	-6.08 ± 0.6
